Marks after values point to notes of the source that are not given here.
Experiments:
Assay type in all cases: in vivo
mice [1] = test: Hypobaric hypoxia in pressure chamber, adult mice; conditions: for Duration of life: adult mice, hypobaric hypoxia
rats = test: 14-day immobilization in antiorthostatic position (Ds), thymus, spleen, adrenal mass ratios Kt; conditions: Ds-conditions; for S/A: spleen/adrenals ratio (mg/100 g baseline body weight); for S/T: spleen/thymus ratio (mg/100 g baseline body weight); for T/A: thymus/adrenals ratio (mg/100 g baseline body weight)
mice [2] = test: Electric extremities pain stimulation, thresholds TA, TFC, TF
mice [3] = test: Benzedrine-induced stimulation of orientation-locomotor activity; conditions: mice; Benzedrine 3.0 mg/kg alone
From the text: In regard to influencing the effects of Benzedrine, Phenotropil also can provide, depending on the dose, the diametrically opposite activity when in combination with psychostimulants. This fact must be taken into account in combined use of various pharmacological agents.

mice [4] = test: Duration of swimming in cold (2° C.) and normal (25° C.) water; conditions: single dose 2.5 mg/kg i.p.
Experimental: Stimulatory effect on the duration of swimming in cold (2° C.) and normal (25° C.) water (Table 8.1-8.1.1) of Phenotropil (25 and 50 mg/kg) compared with the control (distilled water) and Benzedrine (2.5 mg/kg) was studied in white outbred male mice (18-26 g) compared to control (distilled water) when intraperitoneally administered, 60 min after the administration and with a course administration for 4 weeks administration on day 28 (Table 8.1.2). […] At normal temperature of water, the effect of Benzedrine was not modified and stayed at 34%.
The advantage of psychomodulator Phenotropil is obvious both with the single dose and the course use, by the effect on physical performance and stability of the body, both in normal and more adverse temperature conditions.

mice [5] = test: Tremor caused by arecoline
From the text: (§1) Studies have been conducted on white outbred male mice (18-24 g), in comparison with the olanzapine (Zyprexa) with intraperitoneal injection.

mice [6] = test: Open field test
Experimental: Study of the effect of Phenotropil (100, 200, 300 mg/kg) on motor activity and exploratory behavior by the open field test on mice (16-24 g) in comparison with olanzapine (1 mg/kg) is shown in Tables 5-5.4. Olanzapine at higher doses has sedative activity, so for comparison with Phenotropil, the drug was used only at a dose of 1 mg/kg. The drugs and distilled water to control groups were injected intraperitoneally 40 minutes prior to the study. […] This indicates the ability of the drug to reversibility, unlike olanzapine.

mice [7] = test: Apomorphine verticalization (positive symptoms of schizophrenia); conditions: mice, apomorphine 2 mg/kg s.c.
Experimental: as §1
In the model of positive symptoms of schizophrenia associated with hyperactivation of the dopamine systems, which allows to identify the ability of substances to block the dopaminergic transmission in the mesolimbic system of the brain, Phenotropil (100, 200, and 300 mg/kg) reduced the apomorphine-induced (2 mg/kg subcutaneously) verticalization intensity scores (Table 4) by 45%, by 2.0 and 2.6 times, respectively.

rabbits = test: Transcallosal stimulation induced potential (TSIP); conditions: Piracetam 300-500, Pyritinol 50-150, Phenotropil 25-300 mg/kg
mice [8] = test: Cross maze exploratory behavior, HEF and LEF mice; conditions: i.p. once a day 5 days, Compounds 1 and 4 100 mg/kg, Piracetam 200 mg/kg

Compound: O=C1CC(c2ccccc2)CN1 (racemic) [Fepiron, 4(R,S)-feniilpirrolidin-2-one]
- increase of survival time vs control (mice [1]; 100 mg/kg): 47.8%
- effect on survival of the animals (mice [1]; 25-50 mg/kg): did not affect the survival of the animals
- Duration of life (mice [1]; 25 mg/kg): 2.3 ± 0.2^ min
- Duration of life (mice [1]; 50 mg/kg): 2.7 ± 0.2^ min
- Duration of life (mice [1]; 100 mg/kg): 3.4 ± 0.2 min
- S/A (rats; 50 mg/kg): 11.3 ± 0.3
- S/T (rats; 50 mg/kg): 5.4 ± 0.3
- T/A (rats; 50 mg/kg): 2.1 ± 0.2
- S/A (rats; 100 mg/kg): 9.0 ± 0.3
- S/T (rats; 100 mg/kg): 5.4 ± 0.3
- T/A (rats; 100 mg/kg): 1.6 ± 0.3
- S/A (rats; 200 mg/kg): 9.4 ± 0.4
- S/T (rats; 200 mg/kg): 9.5 ± 0.9
- T/A (rats; 200 mg/kg): 1.0 ± 0.1
- TA (threshold of attention) vs control (mice [2]; 25 mg/kg i.p.): 0.0%
- TFC (threshold of first cheep) vs control (mice [2]; 25 mg/kg i.p.): −5.7%
- TA (threshold of attention) vs control (mice [2]; 50 mg/kg i.p.): +5.0%
- TFC (threshold of first cheep) vs control (mice [2]; 50 mg/kg i.p.): +11.4 * %
- TA (threshold of attention) vs control (mice [2]; 100 mg/kg i.p.): +12.5 * %
- TFC (threshold of first cheep) vs control (mice [2]; 100 mg/kg i.p.): +2.8%

Compound: CC(N)Cc1ccccc1 (stereo not drawn) [Benzedrine, reference compound]
- Number of pulses for 3 min. (mice [3]): 84.3 ± 7.9
- Number of stand-ups for 3 min. (mice [3]): 14.2 ± 1.8
- Duration of swimming (mice [4]): 160.70 ± 11.75 min
- Duration of swimming (mice [4]; water 2° C.): 1.60 ± 0.2 min

Compound: NC(=O)CN1CC(c2ccccc2)CC1=O (stereo not drawn) [Fepiron (+)]
- S/A (rats; 200 mg/kg): 11.3 ± 0.4
- S/T (rats; 200 mg/kg): 5.4 ± 0.1
- T/A (rats; 200 mg/kg): 2.1 ± 0.6

Compound: NC(=O)CN1CC(c2ccccc2)CC1=O (stereo not drawn) [Fepiron (−)]
- S/A (rats; 200 mg/kg): 9.0 ± 0.5
- S/T (rats; 200 mg/kg): 4.9 ± 0.7
- T/A (rats; 200 mg/kg): 1.9 ± 0.3

Compound: Cc1cc2c(s1)Nc1ccccc1N=C2N1CCN(C)CC1 [Olanzapine, reference compound]
- reduction of duration of tremor (mice [5]; 1 mg/kg): 57%
- Duration of tremor (mice [5]; mice, arecoline 25 mg/kg, 1.0 mg/kg): 178 ± 28 s
- effect on number of explorations compared to the control (mice [6]; 1 mg/kg): no effect
- increase of number of washes during 1 and 2 minutes (mice [6]; 1 mg/kg): 150%
- increase of number of washes in total (mice [6]; 1 mg/kg): 200%
- reduction of number of rearings (mice [6]; 1 mg/kg): 47%
- reduction of number of visits to the center, total index (mice [6]; 1 mg/kg): 39%
- reduction of overall run distance (mice [6]; 1 mg/kg): 36%
- Distance covered during 1st min (horizontal motor activity) (mice [6]; mice, 1 mg/kg i.p.): 8.3 ± 1.6
- Distance during 2nd min (horizontal motor activity) (mice [6]; mice, 1 mg/kg i.p.): 8.8 ± 0.8
- Distance during 3rd min (horizontal motor activity) (mice [6]; mice, 1 mg/kg i.p.): 10.2 ± 0.9
- Explorations during 2nd min (mice [6]; mice, 1 mg/kg i.p.): 0.5 ± 0.2^
- Explorations during 3rd min (mice [6]; mice, 1 mg/kg i.p.): 1.0 ± 0.3
- Number of explorations (holes) during 1st min (mice [6]; mice, 1 mg/kg i.p.): 0.7 ± 0.2^
- Number of washings during 1st min (mice [6]; mice, 1 mg/kg i.p.): 0.5 ± 0.2
- Total distance at 3 min (horizontal motor activity) (mice [6]; mice, 1 mg/kg i.p.): 27.3 ± 2.6
- Total number of explorations at 3 min (mice [6]; mice, 1 mg/kg i.p.): 2.2 ± 0.4^
- Total number of visits to the center at 3 min (mice [6]; mice, 1 mg/kg i.p.): 0.7 ± 0.3
- Total number of washings at 3 min (mice [6]; mice, 1 mg/kg i.p.): 1.2 ± 0.4
- Visits to the center during 1st min (mice [6]; mice, 1 mg/kg i.p.): 0 ± 0
- Visits to the center during 2nd min (mice [6]; mice, 1 mg/kg i.p.): 0.5 ± 0.2
- Visits to the center during 3rd min (mice [6]; mice, 1 mg/kg i.p.): 0.2 ± 0.2
- Washings during 2nd min (mice [6]; mice, 1 mg/kg i.p.): 0.5 ± 0.2
- Washings during 3rd min (mice [6]; mice, 1 mg/kg i.p.): 0.2 ± 0.2
- vertical motor activity, 1st min (Distance covered) (mice [6]; mice, 1 mg/kg i.p.): 0.8 ± 0.3
- vertical motor activity, 2nd min (mice [6]; mice, 1 mg/kg i.p.): 0.3 ± 0.2
- vertical motor activity, 3rd min (mice [6]; mice, 1 mg/kg i.p.): 0.5 ± 0.2
- vertical motor activity, total at 3 min (mice [6]; mice, 1 mg/kg i.p.): 1.7 ± 0.4
- Intensity of verticalization in points (mice [7]; 1.0 mg/kg i.p.): 36 ± 8.7 points
- Intensity of verticalization in points (mice [7]; 10 mg/kg i.p.): 16.4 ± 8.4*^ points

Compound: NCC(CC(=O)O)c1ccccc1 (stereo not drawn) [Phenibut (+)]
- S/A (rats; 50 mg/kg): 13.0 ± 0.1
- S/T (rats; 50 mg/kg): 4.8 ± 0.1
- T/A (rats; 50 mg/kg): 2.7 ± 0.1

Compound: NCC(CC(=O)O)c1ccccc1 (stereo not drawn) [Phenibut (−)]
- S/A (rats; 50 mg/kg): 12.0 ± 0.3
- S/T (rats; 50 mg/kg): 4.8 ± 0.3
- T/A (rats; 50 mg/kg): 2.5 ± 0.3

Compound: NC(=O)CN1CCCC1=O [Piracetam]
- shortening of survival time vs control (mice [1]; 600 mg/kg): 35.0%
- increase of survival time vs control (mice [1]; 900-2000 mg/kg): 78.0%
- Duration of life (mice [1]; 600 mg/kg): 1.5 ± 0.6 min
- Duration of life (mice [1]; 900 mg/kg): 4.0 ± 0.6 min
- Duration of life (mice [1]; 2000 mg/kg): 4.2 ± 0.4 min
- S/A (rats; 200 mg/kg): 12.1 ± 1.5
- S/T (rats; 200 mg/kg): 7.4 ± 0.7
- T/A (rats; 200 mg/kg): 1.6 ± 0.2
- S/A (rats; 400 mg/kg): 10.8 ± 1.3
- S/T (rats; 400 mg/kg): 7.2 ± 0.4
- T/A (rats; 400 mg/kg): 1.5 ± 0.1
- S/A (rats; 600 mg/kg): 10.2 ± 0.1
- S/T (rats; 600 mg/kg): 4.0 ± 0.1
- T/A (rats; 600 mg/kg): 2.6 ± 0.1
- TSIP P1 + N1 amplitude (rabbits): ++ (amplitude increase by 30 to 50%)
- TSIP component N1 amplitude (rabbits): ++ (amplitude increase by 30 to 50%)
- TSIP component P1 amplitude (rabbits): +++ (amplitude increase by more than 50%)
- TSIP component P2 amplitude (rabbits): + (amplitude increase by less than 50%)
- Kt (trigger transmission coefficient) (mice [8]; HEF mice): 3.1 ± 0.45
- Number of compartment explorations (mice [8]; HEF mice): 4.2 ± 0.7 //
- Number of surveillances (mice [8]; HEF mice): 1.9 ± 0.2
- Kt (trigger transmission coefficient) (mice [8]; LEF mice): 2.4 ± 0.5
- Number of compartment explorations (mice [8]; LEF mice): 5.3 ± 0.8 //
- Number of surveillances (mice [8]; LEF mice): 2.2 ± 0.2
- Kt (trigger transmission coefficient) (mice [8]; population as a whole): 1.3 ± 0.45
- Number of compartment explorations (mice [8]; population as a whole): 4.6 ± 0.7 //
- Number of surveillances (mice [8]; population as a whole): 2.0 ± 0.2
- decrease in the aggression threshold (TF) (mice [2]; 100 mg/kg): 11.3%
- lowering of threshold of emotional reactivity (TFC) (mice [2]; 100 mg/kg): 23.5%
- reduction of the pain threshold (TA) (mice [2]; 100 mg/kg): 43.6%
- TA (threshold of attention) vs control (mice [2]; 100 mg/kg i.p.): −43.6 * %
- TF (threshold of aggression) vs control (mice [2]; 100 mg/kg i.p.): −11.3 * %
- TFC (threshold of first cheep) vs control (mice [2]; 100 mg/kg i.p.): −23.5 * %
- lowering of threshold of emotional reactivity (TFC) (mice [2]; 200 mg/kg): 47.0%
- reduction of the pain threshold (TA) (mice [2]; 200 mg/kg): 48.1%
- TA (threshold of attention) vs control (mice [2]; 200 mg/kg i.p.): −48.1 * %
- TFC (threshold of first cheep) vs control (mice [2]; 200 mg/kg i.p.): −47.0 * %
- TF (threshold of aggression) vs control (mice [2]; 200 mg/kg i.p., 200 mg/kg): −15.7 * %
- TF (threshold of aggression) vs control (mice [2]; 200 mg/kg i.p., listed as Pyracetam, 200 mg/kg): 25.7%
- reduction of the pain threshold (TA) (mice [2]; 300 mg/k (so in the source)): 19.9%
- increase of aggression threshold (TF) (mice [2]; 300 mg/kg (so in the source)): 7.4%
- TA (threshold of attention) vs control (mice [2]; 400 mg/kg i.p.): −20.0 * %
- TF (threshold of aggression) vs control (mice [2]; 400 mg/kg i.p.): −7.4%
- TFC (threshold of first cheep) vs control (mice [2]; 400 mg/kg i.p.): +5.0%

Compound: Cc1ncc(CSSCc2cnc(C)c(O)c2CO)c(CO)c1O [Pyritinol]
- TSIP P1 + N1 amplitude (rabbits): + (amplitude increase by less than 50%)
- TSIP component N1 amplitude (rabbits): + (amplitude increase by less than 50%)
- TSIP component P1 amplitude (rabbits): + (amplitude increase by less than 50%)
- TSIP component P2 amplitude (rabbits): + (amplitude increase by less than 50%)

Compound: CN1C(=O)CN=C(c2ccccc2)c2cc(Cl)ccc21 [Seduxen]
- S/A (rats; 2 mg/kg): 7.6 ± 0.2
- S/T (rats; 2 mg/kg): 3.6 ± 0.1
- T/A (rats; 2 mg/kg): 2.2 ± 1.4

Compound: NCC(CC(=O)O)c1ccccc1 (stereo not drawn) [phenibut]
- S/A (rats; 50 mg/kg): 10.2 ± 0.3
- S/T (rats; 50 mg/kg): 7.6 ± 0.2
- T/A (rats; 50 mg/kg): 1.3 ± 0.6
- S/A (rats; 100 mg/kg): 8.0 ± 0.1
- S/T (rats; 100 mg/kg): 4.7 ± 0.1
- T/A (rats; 100 mg/kg): 1.7 ± 0.1

— patent publication US20140315972A1, “RS)-2-(2-oxo-4-phenylpyrrolidin-1-yl)acetamide compound having modulatory activity with a commensurate effect, pharmaceutical substance (variants) and its application, composition (variants) thereof” (priority 2011, published 2014)
